According to patent publication US9682056B2, “Oleacein for treating or preventing diseases resulting from atherosclerotic plaques” (Warszawski Uniwersytet Medyczny, priority 2012, dated 2017):

Key:
[1] = tested on: metalloproteinase-9 (MMP-9) production; test: MMP-9 production by LPS-stimulated atherosclerotic plaque from carotid artery, ELISA; format: cell-based; details: Homo sapiens; plaques (n=15) from endoartherectomy patients; LPS 1 μg/ml stimulation; 24 hours at 37° C.; average±standard error; read-out: IC50, inhibition of MMP-9 production
Method: Atherosclerotic plaques (n=15) were obtained from patients subjected to endoartherectomy. The plaque obtained was divided into two portions, which were then incubated in buffered physiological saline (control), or buffered physiological saline in the presence of oleacein at the concentrations of 5, 10 and 20 μM for 24 hours at a temperature of 37° C. following prior stimulation with a solution of lipopolysaccharide at a concentration of 1 μg/ml. The unstimulated control consisted of physiological saline, in which the plaque was incubated for […]. The effect of oleacein on metalloproteinase-9 (MMP-9) production was determined using immunochemical ELISA (R&D System). The amount of MMP-9 (ng/ml) was calculated per mass of atherosclerotic plaque, and then described in terms of percentage in comparison to the stimulated control.

[2] = tested on: interleukin 10 (IL-10) production; test: IL-10 production by atherosclerotic plaque, ELISA; format: cell-based, human; details: IL-10 amount per atherosclerotic plaque mass, % of stimulated control
Description: The effects of olacein on interleukin 10 (IL-10) production were investigated with the use of the ELISA immunochemical method (R&D system). The IL-10 amounts were converted into the atherosclerotic plaque mass and, subsequently, determined in % compared to the stimulated control.

- IC50 [1]: 9.07 ± 1.2 µM
SMILES: C/C=C(/C=O)[C@@H](CC=O)CC(=O)OCCc1ccc(O)c(O)c1 [oleacein]
- IL-10 production compared to the stimulated control [2]: about 267.1±61.5%
